Measurements from US11076594B2, “Pyrazolone compound or salt thereof, preparation method therefor, herbicide composition and use thereof” (QINGDAO KINGAGROOT CHEMICAL COMPOUNDS CO., LTD., priority 2015, dated 2021).
Values belong to the compound of their own block, whether it stands above or below them.

What was measured:
Type in all cases: in vivo
rice = experiment: post-emergence stage experiment, crop (Table 1); design: key: Level 10: completely dead; Level 9: above 95% growth control rate; Level 8: above 90% growth control rate; Level 7: above 80% growth control rate; Level 6: above 70% growth control rate; Level 5: above 60% growth control rate; Level 4: above 50% growth control rate; Level 3: above 20% growth control rate; Level 2: 5%-20% growth control rate; Level 1: below 5% growth control rate; conditions: post-emergence spray at 4-5 leaf stage, 250 g/ha active ingredient with 450 kg/ha water, rated after 3 weeks in greenhouse
Method in brief: (§1)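 Weeds and crops grown in soil-filled pots in a greenhouse were sprayed at the 4-5 leaf stage (2-3 weeks after sowing). Compounds were applied in acetone with tween 80, diluted in water. After 3 weeks' culture, growth control was scored as fresh weight control rate.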

crab grass = experiment: weed control effect in post-emergence stage (Table 1); design: key: Level 10: completely dead; Level 9: above 95% growth control rate; Level 8: above 90% growth control rate; Level 7: above 80% growth control rate; Level 6: above 70% growth control rate; Level 5: above 60% growth control rate; Level 4: above 50% growth control rate; Level 3: above 20% growth control rate; Level 2: 5%-20% growth control rate; Level 1: below 5% growth control rate; conditions: post-emergence spray at 4-5 leaf stage, 250 g/ha active ingredient with 450 kg/ha water, rated after 3 weeks in greenhouse
Method in brief: as §1

echinochloa = experiment: as above; design: key: Level 10: completely dead; Level 9: above 95% growth control rate; Level 8: above 90% growth control rate; Level 7: above 80% growth control rate; Level 6: above 70% growth control rate; Level 5: above 60% growth control rate; Level 4: above 50% growth control rate; Level 3: above 20% growth control rate; Level 2: 5%-20% growth control rate; Level 1: below 5% growth control rate; conditions: post-emergence spray at 4-5 leaf stage, 250 g/ha active ingredient with 450 kg/ha water, rated after 3 weeks in greenhouse
Method in brief: as §1

foxtail = experiment: as above; design: key: Level 10: completely dead; Level 9: above 95% growth control rate; Level 8: above 90% growth control rate; Level 7: above 80% growth control rate; Level 6: above 70% growth control rate; Level 5: above 60% growth control rate; Level 4: above 50% growth control rate; Level 3: above 20% growth control rate; Level 2: 5%-20% growth control rate; Level 1: below 5% growth control rate; conditions: post-emergence spray at 4-5 leaf stage, 250 g/ha active ingredient with 450 kg/ha water, rated after 3 weeks in greenhouse
Method in brief: as §1

bidens bipinnata = experiment: as above; design: key: Level 10: completely dead; Level 9: above 95% growth control rate; Level 8: above 90% growth control rate; Level 7: above 80% growth control rate; Level 6: above 70% growth control rate; Level 5: above 60% growth control rate; Level 4: above 50% growth control rate; Level 3: above 20% growth control rate; Level 2: 5%-20% growth control rate; Level 1: below 5% growth control rate; conditions: post-emergence spray at 4-5 leaf stage, 250 g/ha active ingredient with 450 kg/ha water, rated after 3 weeks in greenhouse
Method in brief: as §1

rorippa indica = experiment: as above; design: key: Level 10: completely dead; Level 9: above 95% growth control rate; Level 8: above 90% growth control rate; Level 7: above 80% growth control rate; Level 6: above 70% growth control rate; Level 5: above 60% growth control rate; Level 4: above 50% growth control rate; Level 3: above 20% growth control rate; Level 2: 5%-20% growth control rate; Level 1: below 5% growth control rate; conditions: post-emergence spray at 4-5 leaf stage, 250 g/ha active ingredient with 450 kg/ha water, rated after 3 weeks in greenhouse
Method in brief: as §1

Indian mallow = experiment: as above; design: key: Level 10: completely dead; Level 9: above 95% growth control rate; Level 8: above 90% growth control rate; Level 7: above 80% growth control rate; Level 6: above 70% growth control rate; Level 5: above 60% growth control rate; Level 4: above 50% growth control rate; Level 3: above 20% growth control rate; Level 2: 5%-20% growth control rate; Level 1: below 5% growth control rate; conditions: post-emergence spray at 4-5 leaf stage, 250 g/ha active ingredient with 450 kg/ha water, rated after 3 weeks in greenhouse
Method in brief: as §1

corn = experiment: post-emergence stage experiment, crop (Table 1); conditions: post-emergence spray at 4-5 leaf stage, 250 g/ha active ingredient with 450 kg/ha water, rated after 3 weeks in greenhouse
Method in brief: as §1

wheat [1] = experiment: post-emergence stage experiment, crop (Table 1); conditions: post-emergence spray at 4-5 leaf stage, 250 g/ha active ingredient with 450 kg/ha water, rated after 3 weeks in greenhouse
Method in brief: as §1

flixweed = experiment: wheat field resistant broadleaf weed control, greenhouse spray at 4 leaf stage; design: key: Level 10: completely dead; Level 9: above 95% growth control rate; Level 8: above 90% growth control rate; Level 7: above 80% growth control rate; Level 6: above 70% growth control rate; Level 5: above 60% growth control rate; Level 4: above 50% growth control rate; Level 3: above 20% growth control rate; Level 2: 5%-20% growth control rate; Level 1: below 5% growth control rate; conditions: 250 g/ha of the active substance; 4 weeks after treatment; ALS inhibitor resistant
Method in brief: (§2)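 Potted plants grown in greenhouse were sprayed at the 4 leaf stage, 2–3 weeks post-sowing, with compound in acetone plus methyl oleate emulsion diluted in water. After 4 weeks of further greenhouse culture, growth control was scored as fresh weight control rate.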

chickweed = experiment: as above; design: key: Level 10: completely dead; Level 9: above 95% growth control rate; Level 8: above 90% growth control rate; Level 7: above 80% growth control rate; Level 6: above 70% growth control rate; Level 5: above 60% growth control rate; Level 4: above 50% growth control rate; Level 3: above 20% growth control rate; Level 2: 5%-20% growth control rate; Level 1: below 5% growth control rate; conditions: 250 g/ha of the active substance; 4 weeks after treatment; ALS inhibitor resistant
Method in brief: as §2

corn gromwell = experiment: as above; design: key: Level 10: completely dead; Level 9: above 95% growth control rate; Level 8: above 90% growth control rate; Level 7: above 80% growth control rate; Level 6: above 70% growth control rate; Level 5: above 60% growth control rate; Level 4: above 50% growth control rate; Level 3: above 20% growth control rate; Level 2: 5%-20% growth control rate; Level 1: below 5% growth control rate; conditions: 250 g/ha of the active substance; 4 weeks after treatment; ALS inhibitor resistant
Method in brief: as §2

shepherd's purse = experiment: as above; design: key: Level 10: completely dead; Level 9: above 95% growth control rate; Level 8: above 90% growth control rate; Level 7: above 80% growth control rate; Level 6: above 70% growth control rate; Level 5: above 60% growth control rate; Level 4: above 50% growth control rate; Level 3: above 20% growth control rate; Level 2: 5%-20% growth control rate; Level 1: below 5% growth control rate; conditions: 250 g/ha of the active substance; 4 weeks after treatment; ALS inhibitor resistant
Method in brief: as §2

wheat [2] = experiment: wheat field test, crop selectivity, greenhouse spray at 4 leaf stage; conditions: 250 g/ha of the active substance; 4 weeks after treatment
Method in brief: as §2

SMILES: CCn1nc(C)c(C(=O)c2ccc(C(F)(F)F)c(N3CCCCCC3=O)c2Cl)c1OC(=O)c1cn(C)nc1C [Compound 119]
effect on crop, Rice (level) (rice): 6 (Level 6: above 70% growth control rate)
weed control effect, Crab grass (level) (crab grass): 5 (Level 5: above 60% growth control rate)
weed control effect, Echinochloa (level) (echinochloa): 10
weed control effect, Green foxtail (level) (foxtail): 9 (Level 9: above 95% growth control rate)
weed control effect, Bidens bipinnata (level) (bidens bipinnata): 5 (Level 5: above 60% growth control rate)
weed control effect, Rorippa indica (level) (rorippa indica): 10
weed control effect, Indian mallow (level) (Indian mallow): 3 (Level 3: above 20% growth control rate)
effect on crop, Corn (level) (corn): 3 (Level 3: above 20% growth control rate)
effect on crop, Wheat (level) (wheat [1]): 1 (Level 1: below 5% growth control rate)
flixweed weed controlling effect (activity level) (flixweed): 10
chickweed weed controlling effect (activity level) (chickweed): 10
corn gromwell weed controlling effect (activity level) (corn gromwell): 10
shepherd's purse weed controlling effect (activity level) (shepherd's purse): 10
Wheat (activity level, crop damage) (wheat [2]): 1 (Level 1: below 5% growth control rate)

SMILES: Cc1nn(C)cc1C(=O)Oc1c(C(=O)c2ccc(C(F)(F)F)c(N3CCCCCC3=O)c2Cl)cnn1C [Compound 052]
effect on crop, Rice (level) (rice): 1 (Level 1: below 5% growth control rate)
weed control effect, Crab grass (level) (crab grass): 4 (Level 4: above 50% growth control rate)
weed control effect, Echinochloa (level) (echinochloa): 5 (Level 5: above 60% growth control rate)
weed control effect, Green foxtail (level) (foxtail): 1 (Level 1: below 5% growth control rate)
weed control effect, Bidens bipinnata (level) (bidens bipinnata): 1 (Level 1: below 5% growth control rate)
weed control effect, Rorippa indica (level) (rorippa indica): 10
weed control effect, Indian mallow (level) (Indian mallow): 10
effect on crop, Corn (level) (corn): 1 (Level 1: below 5% growth control rate)
effect on crop, Wheat (level) (wheat [1]): 0
flixweed weed controlling effect (activity level) (flixweed): 10
chickweed weed controlling effect (activity level) (chickweed): 10
corn gromwell weed controlling effect (activity level) (corn gromwell): 10
shepherd's purse weed controlling effect (activity level) (shepherd's purse): 10
Wheat (activity level, crop damage) (wheat [2]): 0

SMILES: CCc1nn(C)c(OC(=O)c2cn(C)nc2C)c1C(=O)c1ccc(C(F)(F)F)c(-n2cccn2)c1Cl [Compound 131]
effect on crop, Rice (level) (rice): 10
weed control effect, Crab grass (level) (crab grass): 3 (Level 3: above 20% growth control rate)
weed control effect, Echinochloa (level) (echinochloa): 10
weed control effect, Green foxtail (level) (foxtail): 10
weed control effect, Bidens bipinnata (level) (bidens bipinnata): 10
weed control effect, Rorippa indica (level) (rorippa indica): 10
weed control effect, Indian mallow (level) (Indian mallow): 10
effect on crop, Corn (level) (corn): 4 (Level 4: above 50% growth control rate)
effect on crop, Wheat (level) (wheat [1]): 0
flixweed weed controlling effect (activity level) (flixweed): 10
chickweed weed controlling effect (activity level) (chickweed): 10
corn gromwell weed controlling effect (activity level) (corn gromwell): 10
shepherd's purse weed controlling effect (activity level) (shepherd's purse): 10
Wheat (activity level, crop damage) (wheat [2]): 0

SMILES: Cc1nn(C)cc1C(=O)Oc1c(C(=O)c2ccc(C(F)(F)F)c(N3CCCCCC3=O)c2Cl)c(C)nn1C [Compound 058]
effect on crop, Rice (level) (rice): 2 (Level 2: 5%-20% growth control rate)
weed control effect, Crab grass (level) (crab grass): 1 (Level 1: below 5% growth control rate)
weed control effect, Echinochloa (level) (echinochloa): 4 (Level 4: above 50% growth control rate)
weed control effect, Green foxtail (level) (foxtail): 1 (Level 1: below 5% growth control rate)
weed control effect, Bidens bipinnata (level) (bidens bipinnata): 4 (Level 4: above 50% growth control rate)
weed control effect, Rorippa indica (level) (rorippa indica): 10
weed control effect, Indian mallow (level) (Indian mallow): 10
effect on crop, Corn (level) (corn): 1 (Level 1: below 5% growth control rate)
effect on crop, Wheat (level) (wheat [1]): 0
flixweed weed controlling effect (activity level) (flixweed): 10
chickweed weed controlling effect (activity level) (chickweed): 10
corn gromwell weed controlling effect (activity level) (corn gromwell): 10
shepherd's purse weed controlling effect (activity level) (shepherd's purse): 10
Wheat (activity level, crop damage) (wheat [2]): 0

Second part, led by results:

effect on crop, Corn (level) (corn): 0
effect on crop, Wheat (level) (wheat [1]): 0
SMILES: CCOc1c(C(=O)Oc2c(C(=O)c3ccc(C(F)(F)F)c(N4CCCCCC4=O)c3Cl)c(C3CC3)nn2C)cnn1C [Compound 060]
effect on crop, Rice (level) (rice): 1 (Level 1: below 5% growth control rate)
weed control effect, Crab grass (level) (crab grass): 3 (Level 3: above 20% growth control rate)
weed control effect, Echinochloa (level) (echinochloa): 5 (Level 5: above 60% growth control rate)
weed control effect, Green foxtail (level) (foxtail): 1 (Level 1: below 5% growth control rate)
weed control effect, Bidens bipinnata (level) (bidens bipinnata): 7 (Level 7: above 80% growth control rate)
weed control effect, Rorippa indica (level) (rorippa indica): 10
weed control effect, Indian mallow (level) (Indian mallow): 10
flixweed weed controlling effect (activity level) (flixweed): 10
chickweed weed controlling effect (activity level) (chickweed): 10
corn gromwell weed controlling effect (activity level) (corn gromwell): 10
shepherd's purse weed controlling effect (activity level) (shepherd's purse): 10
Wheat (activity level, crop damage) (wheat [2]): 0

effect on crop, Rice (level) (rice): 10
effect on crop, Corn (level) (corn): 0
SMILES: CCc1nn(C)c(OC(=O)c2cn(C)nc2C)c1C(=O)c1ccc(C(F)(F)F)c(-n2cc(C)cn2)c1Cl [Compound 141]
weed control effect, Crab grass (level) (crab grass): 3 (Level 3: above 20% growth control rate)
weed control effect, Echinochloa (level) (echinochloa): 9 (Level 9: above 95% growth control rate)
weed control effect, Green foxtail (level) (foxtail): 7 (Level 7: above 80% growth control rate)
weed control effect, Bidens bipinnata (level) (bidens bipinnata): 7 (Level 7: above 80% growth control rate)
weed control effect, Rorippa indica (level) (rorippa indica): 10
weed control effect, Indian mallow (level) (Indian mallow): 9 (Level 9: above 95% growth control rate)
effect on crop, Wheat (level) (wheat [1]): 1 (Level 1: below 5% growth control rate)
flixweed weed controlling effect (activity level) (flixweed): 10
chickweed weed controlling effect (activity level) (chickweed): 10
corn gromwell weed controlling effect (activity level) (corn gromwell): 10
shepherd's purse weed controlling effect (activity level) (shepherd's purse): 10
Wheat (activity level, crop damage) (wheat [2]): 1 (Level 1: below 5% growth control rate)

effect on crop, Corn (level) (corn): 2 (Level 2: 5%-20% growth control rate)
effect on crop, Wheat (level) (wheat [1]): 0
SMILES: CCOc1c(C(=O)Oc2c(C(=O)c3ccc(C(F)(F)F)c(N4CCCCCC4=O)c3Cl)cnn2C)cnn1C [Compound 051]
effect on crop, Rice (level) (rice): 1 (Level 1: below 5% growth control rate)
weed control effect, Crab grass (level) (crab grass): 5 (Level 5: above 60% growth control rate)
weed control effect, Echinochloa (level) (echinochloa): 6 (Level 6: above 70% growth control rate)
weed control effect, Green foxtail (level) (foxtail): 0
weed control effect, Bidens bipinnata (level) (bidens bipinnata): 2 (Level 2: 5%-20% growth control rate)
weed control effect, Rorippa indica (level) (rorippa indica): 10
weed control effect, Indian mallow (level) (Indian mallow): 10
flixweed weed controlling effect (activity level) (flixweed): 10
chickweed weed controlling effect (activity level) (chickweed): 10
corn gromwell weed controlling effect (activity level) (corn gromwell): 10
shepherd's purse weed controlling effect (activity level) (shepherd's purse): 10
Wheat (activity level, crop damage) (wheat [2]): 0
